# Where a SMILES comes first, the peptide text is derived from it. [ ]: non-standard residue; d: D form.
# What was measured:
# Tau^Δ1‐250 [1] = molecular target: T1, Tau^Δ1‐250 (Homo sapiens, UniProt P10636); test: ThT fluorescence, heparin-induced aggregation of Tau^Δ1‐250; type: biochemical
# T1 construct: Tau^Δ1‐250 (an aggregate prone truncated version of full‐length Tau); made in house; host or cells: E. coli BL21(DE3)
# Method: Fluorescence was measured (λex = 442 nm, λem = 483 nm), and data were normalized. […] The addition of inhibitor to the growth phase was controlled by adding an equivalent volume of buffer alone.
# Experiments were conducted in triplicate and error bars were reported as standard deviation. Statistical analysis: p > 0.05, *p ≤ 0.05, **p ≤ 0.01, ***p ≤ 0.001.
# Tau^Δ1‐250 [2] = molecular target: T1, Tau^Δ1‐250; test: Seeded Tau^Δ1‐250 aggregation with preformed filaments, no heparin; type: biochemical; settings: Tau monomers incubated with preformed Tau^Δ1‐250 filaments, no heparin (Figure S10)
# Tau^Δ1‐250 [3] = molecular target: T1, Tau^Δ1‐250; test: TEM of aggregated Tau^Δ1‐250; type: biochemical
# Method: Transmission electron microscopy (TEM): Tau was aggregated in similar conditions as above. Samples (10 µL) were loaded onto Formvar/Carbon 300 mesh copper grids for 3 min. The excess sample was wicked away and then negatively stained with 10 µL of filtered 2% phosphotungstic acid, pH 2, for 2 min. Grids were examined using a JEOL JEM‐1010 transmission electron microscope and were visualized and photographed at 50,000× magnification with 80.0 kV.
# FIGURE 4 Lead peptide RI‐AG03 suppresses Tau β‐sheet content and forms of off‐pathway structures. […] 20 µM RI‐AG03 was added after 0, 24, and 72 h, of Tau aggregation (hatched gray bars), or not at all (solid gray bar representing end‐point aggregation of Tau^2N4R at 9 days). Note that Tau^2N4R aggregation plateaued at ∼72 h. […] One factor repeated measures ANOVA + Tukey post hoc statistical analysis: p > 0.05, *p ≤ 0.05, **p ≤ 0.01, ***p ≤ 0.001. (C) Negative stain TEM images using a Joel JEM‐1010 after the aggregation of 20 µM Tau^Δ1‐250 for 24 h, in the absence of RI‐AG03 (left), and in the presence of 20 µM RI‐AG03 (right). (D) The area and diameter of 200 large spherical species formed in the presence of 20 µM RI‐AG03 and recorded by TEM were quantified using iTEM software. […]
# Elav/hTau^2N4R flies = test: Drosophila survival assay, hTau^2N4R pan-neuronal; type: in vivo, Drosophila melanogaster; parameters: unit of the concentration uncertain
# Method: Drosophila survival assays: Elav‐GAL4 (BDSC_458) female flies were crossed with male UAS‐Tau^2N4R flies or with gender‐matched Oregon‐R (WT) flies. Survival of 10 cohorts of 10 male flies expressing hTau^2N4R pan‐neurally and reared on a diet containing 0.08 or 0.8 µM RI‐AG03 was assessed as previously described.[49] Statistics and reproducibility: Data were collected in ≥triplicate and expressed as mean ± standard error of the mean. […] This test analyzed outcomes related to the treatment effects of peptide inhibitors against Tau aggregation at multiple time points, controlling for individual variability and ensuring that changes observed were significant. For the Drosophila survival data, a Kaplan–Meier survival curve was plotted, and a Log‐rank (Mantel–Cox) test was performed on the data using GraphPad Prism software[49] This test analyzed survival outcomes by comparing survival distribution between groups, without assuming a specific distribution for survival times. AFM data were analyzed by unpaired t‐test with Welch's correction as we made the assumption, from previous similar studies, that the two populations (Tau enriched preps isolated from flies fed or not fed RI‐AG03) had the […].
# T1 sequence (P10636 568-758, stated change not applied): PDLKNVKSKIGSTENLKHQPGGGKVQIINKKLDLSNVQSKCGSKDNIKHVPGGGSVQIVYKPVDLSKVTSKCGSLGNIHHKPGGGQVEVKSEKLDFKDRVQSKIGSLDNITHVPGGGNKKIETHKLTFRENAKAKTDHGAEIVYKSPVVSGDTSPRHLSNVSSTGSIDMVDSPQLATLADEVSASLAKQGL
smiles,measurement,setting,value
CC[C@@H](C)[C@@H](NC(=O)[C@@H](CCCCNC(C)=O)NC(=O)[C@@H](Cc1ccc(O)cc1)NC(=O)[C@@H](CCCCN)NC(=O)[C@H]1CCCN1C(=O)CNC(=O)[C@@H](CCCNC(=N)N)NC(=O)[C@@H](CCCNC(=N)N)NC(=O)[C@@H](CCCNC(=N)N)NC(=O)[C@@H](CCCNC(=N)N)NC(=O)[C@@H](CCCNC(=N)N)NC(=O)[C@@H](CCCNC(=N)N)NC(=O)[C@@H](CCCNC(=N)N)NC(=O)[C@@H](CCCNC(=N)N)NC(C)=O)C(=O)N[C@H](CCC(N)=O)C(=O)N[C@@H](C(=O)NCC(=O)N[C@H](CCCNC(=N)N)C(N)=O)C(C)C [RI‐AG03] (Ac-[dR][dR][dR][dR][dR][dR][dR][dR]G[dP][dK][dY][dK](Ac)[dI][dQ][dV]G[dR]-NH2),IC50,Tau^Δ1‐250 [1],7.83 µM
same,inhibition of Tau^Δ1‐250 aggregation,"Tau^Δ1‐250 [1]; ThT end-point after 24 h, 37°C, 20 µM Tau^Δ1‐250, 20 µM peptide (equimolar), 5 µM heparin, 30 mM Tris, 1 mM DTT, 15 µM ThT, pH 7.4, triplicate",~94%
same,effect when added during the growth phase of Tau^Δ1‐250 aggregation,"Tau^Δ1‐250 [1]; ThT kinetics 12 h, 20 µM Tau^Δ1‐250, 20 µM RI‐AG03 added 1 h after aggregation was initiated",halted any further aggregation
same,effect on seeded Tau^Δ1‐250 aggregation in the absence of heparin,Tau^Δ1‐250 [2],demonstrated efficacy at inhibiting seeded Tau^Δ1‐250 aggregation
same,mean diameter of large spherical structures formed with the inhibitor,"Tau^Δ1‐250 [3]; 20 µM Tau^Δ1‐250, 20 µM RI‐AG03, 24 h, TEM, 200 species quantified",~36 nm
same,fibrils seen by TEM,"Tau^Δ1‐250 [3]; 20 µM Tau^Δ1‐250 with heparin 24 h, equimolar (20 µM) RI‐AG03, negative stain TEM",these fibrils were not observed
same,"median survival of hTau^2N4R flies, high dose","Elav/hTau^2N4R flies; high‐dose (0.8 µM) in diet, pan‐neuronal hTau^2N4R male flies, untreated 26 days, n = 100, p < 0.0005",35 days
same,"improvement of median survival of hTau^2N4R flies, high dose","Elav/hTau^2N4R flies; high‐dose (0.8 µM) in diet, versus untreated 26 days, n = 100",35%
same,"median survival of hTau^2N4R flies, low dose","Elav/hTau^2N4R flies; low‐dose (0.08 µM) in diet, pan‐neuronal hTau^2N4R male flies, untreated 26 days, n = 100, p < 0.0005",33 days
same,"improvement of median survival of hTau^2N4R flies, low dose","Elav/hTau^2N4R flies; low‐dose (0.08 µM) in diet, versus untreated 26 days, n = 100",27%
same,concentration at which toxicity begins to increase (LDH cytotoxicity),HEK‐293 cells,40 µM
same,doses found non‐toxic (LDH cytotoxicity),HEK‐293 cells,up to 30 µM

# Reference: paper PMC11567856, “A novel peptide‐based tau aggregation inhibitor as a potential therapeutic for Alzheimer's disease and other tauopathies” (Alzheimer's & Dementia, 2024)
